Test results reported in BindingDB's records for doi:10.1074/jbc.M111.266981 (AstraZeneca, 2011).

target: T1, Myeloperoxidase (Homo sapiens, UniProt P05164); assay: Activity Assay; details: pH 7.4; 21 °C
T1 sequence (P05164 whole entry): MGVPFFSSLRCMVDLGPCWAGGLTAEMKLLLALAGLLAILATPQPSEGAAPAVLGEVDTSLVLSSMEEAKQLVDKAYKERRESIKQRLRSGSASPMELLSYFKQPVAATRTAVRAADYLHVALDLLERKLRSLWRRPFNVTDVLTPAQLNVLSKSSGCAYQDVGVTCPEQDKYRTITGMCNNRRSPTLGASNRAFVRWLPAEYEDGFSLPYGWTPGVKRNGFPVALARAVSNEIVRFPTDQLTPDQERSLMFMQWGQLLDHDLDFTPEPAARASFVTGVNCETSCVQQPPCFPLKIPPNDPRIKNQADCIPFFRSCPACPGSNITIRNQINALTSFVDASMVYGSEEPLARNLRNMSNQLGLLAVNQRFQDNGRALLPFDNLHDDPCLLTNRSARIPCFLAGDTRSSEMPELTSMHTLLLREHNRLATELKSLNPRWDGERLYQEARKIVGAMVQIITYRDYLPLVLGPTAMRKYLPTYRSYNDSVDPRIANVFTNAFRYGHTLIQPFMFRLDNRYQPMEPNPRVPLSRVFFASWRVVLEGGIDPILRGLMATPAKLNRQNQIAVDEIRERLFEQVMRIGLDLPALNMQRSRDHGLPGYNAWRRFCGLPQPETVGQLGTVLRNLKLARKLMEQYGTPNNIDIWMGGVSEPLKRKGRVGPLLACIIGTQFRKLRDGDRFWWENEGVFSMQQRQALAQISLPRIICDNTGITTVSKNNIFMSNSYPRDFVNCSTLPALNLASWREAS
Method: The chlorination activity of MPO was determined by measuring the production of hypocholorous acid.

Row | IC50 [nM] | Compound
1 | 1000 | CC(C)Cn1c(=S)[nH]c(=O)c2[nH]cnc21 [2-Thioxanthine, TX1]
2 | 200 | O=c1[nH]c(=S)n(C[C@H]2CCCO2)c2nc[nH]c12 [2-Thioxanthine, TX4]
3 | 400 | COCCn1c(=S)[nH]c(=O)c2[nH]cnc21 [2-Thioxanthine, TX5]
4 | 400 | O=c1[nH]c(=S)n(CC2CCCO2)c2nc[nH]c12 (centres undefined) [2-Thioxanthine, TX3]
